US4877893A, “Process for the preparation of 2-(O-alkyl)-2-thio-1,3,2-oxathiophospholanes” (priority 1987, dated 1989)

Legend:
Assay in all cases: Fungicidal effect on infected agar nutrient media, colony diameter
Format in all cases: cell-based
Alternaria tenuis = settings: 5th day after treatment, untreated control 36.8
Method: (§1) Agar nutrient media (Diameter 70 MM, thickness 10 mm) infected by Sclerotonia sclerotinia suspension are treated with 20 EC formulations prepared according to Example 27 and comprising 1, 10, 100 and 1000 ppm, respectively of the active ingredient of the Formula I. The fungicidal effect of the compositions is evaluated on the 3rd day after treatment by measuring the diameter of the Fungi colonies.
The series of measurements according to Example 35 is carried out except that the agar nutrient media are infected by Alternaria Tenius and evaluation is accomplished on the 5th day after treatment.

Penicillium cyclopium = settings: 7th day after treatment, untreated 26.5
Method: as §1
The series of measureents described in Example 35 is carried out except that the agar nutrient media are infected by a Penicillium cyclopium Fungi strain and the test is evaluated on the 7th day after treatment.

Sclerotinia sclerotinia = settings: 3rd day after treatment, untreated control 41.7
Method: as §1

| SMILES | Diameter of colony (mm) (Alternaria tenuis; 1 ppm) | Diameter of colony (mm) (Alternaria tenuis; 10 ppm) | Diameter of colony (mm) (Alternaria tenuis; 100 ppm) | Diameter of colony (mm) (Alternaria tenuis; 1000 ppm) | Diameter of colony (mm) (Penicillium cyclopium; 1 ppm) | Diameter of colony (mm) (Penicillium cyclopium; 10 ppm) | Diameter of colony (mm) (Penicillium cyclopium; 100 ppm) | Diameter of colony (mm) (Penicillium cyclopium; 1000 ppm) | Diameter of colony (mm) (Sclerotinia sclerotinia; 1 ppm) | Diameter of colony (mm) (Sclerotinia sclerotinia; 10 ppm) | Diameter of colony (mm) (Sclerotinia sclerotinia; 100 ppm) | Diameter of colony (mm) (Sclerotinia sclerotinia; 1000 ppm) |
| --- | --- | --- | --- | --- | --- | --- | --- | --- | --- | --- | --- | --- |
| CC(CI)OP1(=S)OCCS1 (stereo not drawn) [Compound 12] | 34.5 | 22.0 | 4.8 | 0 | 25.8 | 16.1 | 4.7 | 0 | 35.9 | 27.4 | 3.7 | 0 |
| CC(Cl)COP1(=S)OCCS1 (stereo not drawn) [Compound 13, 2-(0-2'-methyl-2'-chloroethyl)-2-thio-1,3,2-oxathiophospholane] | 32.2 | 25.8 | 5.1 | 0 | 24.5 | 19.2 | 7.5 | 0 | 33.9 | 32.1 | 1.7 | 0 |
| CC(Br)COP1(=S)OCCS1 (stereo not drawn) [Compound 14] | 31.3 | 21.3 | 5.7 | 0 | 18.2 | 17.6 | 7.9 | 0 | 38.1 | 28.1 | 0 | 0 |
| CC(I)COP1(=S)OCCS1 (stereo not drawn) [Compound 15] | 35.9 | 21.1 | 5.5 | 0 | 19.1 | 15.5 | 5.8 | 0 | 34.3 | 30.3 | 1.4 | 0 |
| CC1OP(=S)(OCCCl)SC1C (stereo not drawn) [Compound 16, 2-(0-2'-chloroethyl)-2-thio-4,5-dimethyl-1,3,2-oxathiophospholane] | 34.4 | 22.0 | 6.3 | 0 | 23.2 | 18.1 | 6.6 | 0 | 39.4 | 27.6 | 1.7 | 0 |
| CC1OP(=S)(OCCBr)SC1C (stereo not drawn) [Compound 17] | 33.2 | 23.9 | 5.6 | 0 | 24.9 | 14.2 | 8.9 | 0 | 40.1 | 30.2 | 1.0 | 0 |
| CC1OP(=S)(OCCI)SC1C (stereo not drawn) [Compound 18] | 35.8 | 22.8 | 5.3 | 0 | 25.2 | 14.2 | 6.3 | 0 | 38.2 | 28.0 | 1.5 | 0 |
| CC(CCl)OP1(=S)OC(C)CS1 (stereo not drawn) [Compound 19, 2-(0-1'-methyl-2'-chloroethyl)-2-thio-5-methyl-1,3,2-oxathiophospholane] | 32.3 | 21.7 | 4.3 | 0 | 21.5 | 15.6 | 5.5 | 0 | 36.5 | 27.4 | 3.9 | 0 |
| CC(CBr)OP1(=S)OC(C)CS1 (stereo not drawn) [Compound 20] | 33.2 | 25.0 | 5.0 | 0 | 20.1 | 17.7 | 4.1 | 0 | 34.9 | 28.2 | 1.6 | 0 |
| CC(CI)OP1(=S)OC(C)CS1 (stereo not drawn) [Compound 21, 2-(0-1'-methyl-2'-iodoethyl)-2-thio-5-methyl-1,3,2-oxathiophospholane] | 30.9 | 24.2 | 7.2 | 0 | 23.7 | 20.0 | 6.9 | 0 | 33.8 | 25.8 | 2.50 | 0 |
| CC(Cl)COP1(=S)OC(C)CS1 (stereo not drawn) [Compound 22, 2-(0-2'-methyl-2'-chloroethyl)-2-thio-5-methyl-1,3,2-oxathiophospholane] | 34.4 | 26.1 | 8.7 | 0 | 24.6 | 16.2 | 6.7 | 0 | 37.8 | 30.1 | 2.9 | 0 |
| CC(Br)COP1(=S)OC(C)CS1 (stereo not drawn) [Compound 23] | 33.8 | 24.1 | 5.2 | 0 | 22.6 | 15.8 | 4.3 | 0 | 36.9 | 29.7 | 3.6 | 0 |
| CC(I)COP1(=S)OC(C)CS1 (stereo not drawn) [Compound 24] | 34.8 | 25.5 | 6.1 | 0 | 24.2 | 15.0 | 5.9 | 0 | 38.1 | 29.0 | 3.2 | 0 |
